Experimental data published in patent US8822471B2, “Compounds, pharmaceutical compositions and uses thereof” (Boehringer Ingelheim International GmbH, priority 2011, dated 2014).

Target: T1, mutant form of the human GPR119 receptor (Homo sapiens, UniProt Q8TDV5, S329A/T327A)
T1 construct: T327 & S329 changed to alanines; expressed in transfected cells
T1 sequence (Q8TDV5 2-335 T327A/S329A): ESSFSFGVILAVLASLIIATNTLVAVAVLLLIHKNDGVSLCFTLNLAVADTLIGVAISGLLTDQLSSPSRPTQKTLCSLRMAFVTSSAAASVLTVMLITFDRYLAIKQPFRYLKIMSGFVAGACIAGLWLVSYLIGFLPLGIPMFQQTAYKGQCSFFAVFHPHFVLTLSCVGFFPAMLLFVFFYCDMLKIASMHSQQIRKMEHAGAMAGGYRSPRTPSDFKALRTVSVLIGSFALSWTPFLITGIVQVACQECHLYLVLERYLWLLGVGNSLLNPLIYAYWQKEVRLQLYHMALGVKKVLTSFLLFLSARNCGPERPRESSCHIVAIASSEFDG
Assay: LANCE cAMP-384 assay in HEK293 cells stably expressing a mutant form of the human GPR119 receptor
Format: cell-based
Details: HEK293 cells stably expressing mutant human GPR119, LANCE cAMP-384 Kit, 20 min at 37° C.
Procedure: Quantitative detection of cAMP accumulation from cells expressing human GPR119 receptor is achieved using Perkin Elmer's LANCE cAMP-384 Kit (Cat#AD0264) according to the manufacturer's protocol. Briefly, HEK293 cells stably expressing a mutant form of the human GPR119 receptor as assay tool (Methionine 1 replaced with the amino acid sequence […], and T327 & S329 changed to alanines; SEQ ID No. 1) are grown to 50-70% confluency in cell culture media (DMEM, 10% heat inactivated Fetal Bovine Serum, 50 I.U./mL penicillin, 50 μg/mL streptomycin, 10 mM HEPES, 20 μg/mL G418 Sulfate). On the day of the assay, GPR119 stable HEK293 cells are lifted from the tissue culture plate and 1000 cells/well are incubated along with various concentrations of test compounds for 20 min at 37° C. Detection Buffer (50 mM HEPES, 10 mM calcium chloride, 0.35% Triton X-100, 1 mg/mL BSA) containing cAMP-specific antibody is then added to all wells and allowed to equilibrate in the dark for 10 minutes at room temperature. Upon equilibration, Detection Buffer containing europium-labeled cAMP tracer complex is added to all wells and allowed to react for 1 hour at room temperature. After 1 hour, bound europium-labeled cAMP tracer is measured using a Perkin Elmer Envision plate reader. The quantity of cAMP generated in each well is derived from a standard curve. EC50 is determined using nonlinear regression analysis of the cAMP values over a range of agonist concentration (12 points spanning the range from 30 μM to 100 pM).

With `Cc1nnnn1-c1ccc(C(=O)N(C2CC2)[C@@H]2CCN(c3ccc(C(F)(F)F)cn3)C[C@@H]2F)cc1` (single isomer, unassigned) [Example 120] the EC50 was 745 nM.

`O=C(c1ccc(-n2cnnn2)c(F)c1)N(C1CC1)[C@@H]1CCN(c2ccc(C(F)(F)F)cn2)C[C@@H]1F` (single isomer, unassigned) [Example 121] showed an EC50 of 134 nM.

Compound `Cc1nccn1-c1ccc(C(=O)N(C2CC2)C2CCN(c3ncc(C(F)(F)F)cc3F)CC2)cc1` [Example 90, N-Cyclopropyl-N-(3′-fluoro-5′-trifluoromethyl-3,4,5,6-tetrahydro-2H-[1,2′]bipyridinyl-4-yl)-4-(2-methyl-imidazol-1-yl)-benzamide] has an EC50 of 149 nM.

Compound `O=C(c1ccc(-n2cncn2)cc1)N(C1CC1)C1CCN(c2ncc(C(F)(F)F)cc2F)CC1` [Example 91, N-Cyclopropyl-N-(3′-fluoro-5′-trifluoromethyl-3,4,5,6-tetrahydro-2H-[1,2′]bipyridinyl-4-yl)-4-[1,2,4]triazol-1-yl-benzamide] has an EC50 of 48 nM.

`Cc1ncnn1-c1ccc(C(=O)N(C2CC2)C2CCN(c3ncc(C(F)(F)F)cc3F)CC2)cc1` [Example 92, N-Cyclopropyl-N-(3′-fluoro-5′-trifluoromethyl-3,4,5,6-tetrahydro-2H-[1,2′]bipyridinyl-4-yl)-4-(5-methyl-[1,2,4]triazol-1-yl)-benzamide] was tested, and the EC50 was 265 nM.

In the case of `Cc1nccn1-c1ccc(C(=O)N(C2CC2)C2CCN(c3ncc(C(F)(F)F)cc3F)CC2)cc1F` [Example 93, N-Cyclopropyl-3-fluoro-N-(3′-fluoro-5′-trifluoromethyl-3,4,5,6-tetrahydro-2H-[1,2′]bipyridinyl-4-yl)-4-(2-methyl-imidazol-1-yl)-benzamide], the EC50 is reported as 168 nM.

`O=C(c1ccc(-n2cncn2)c(F)c1)N(C1CC1)C1CCN(c2ncc(C(F)(F)F)cc2F)CC1` [Example 94, N-Cyclopropyl-3-fluoro-N-(3′-fluoro-5′-trifluoromethyl-3,4,5,6-tetrahydro-2H-[1,2′]bipyridinyl-4-yl)-4-[1,2,4]triazol-1-yl-benzamide] showed an EC50 of 10 nM.

`Cc1ncnn1-c1ccc(C(=O)N(C2CC2)C2CCN(c3ncc(C(F)(F)F)cc3F)CC2)cc1F` [Example 95, N-Cyclopropyl-3-fluoro-N-(3′-fluoro-5′-trifluoromethyl-3,4,5,6-tetrahydro-2H-[1,2′]bipyridinyl-4-yl)-4-(5-methyl-[1,2,4]triazol-1-yl)-benzamide] gave an EC50 of 595 nM.

Compound `Cc1nccn1-c1ccc(C(=O)N(C2CC2)C2CCN(c3nc(C(C)C)no3)CC2)cc1` [Example 96, N-Cyclopropyl-N-[1-(3-isopropyl-[1,2,4]oxadiazol-5-yl)-piperidin-4-yl]-4-(2-methyl-imidazol-1-yl)-benzamide] has an EC50 of 1630 nM.

For `CC(C)c1noc(N2CCC(N(C(=O)c3ccc(-n4cncn4)cc3)C3CC3)CC2)n1` [Example 97, N-Cyclopropyl-N-[1-(3-isopropyl-[1,2,4]oxadiazol-5-yl)-piperidin-4-yl]-4-[1,2,4]triazol-1-yl-benzamide], the EC50 was 170 nM.

With `Cc1nccn1-c1ccc(C(=O)N(C2CC2)C2CCN(c3nc(C(C)C)no3)CC2)cc1F` [Example 99, N-Cyclopropyl-3-fluoro-N-[1-(3-isopropyl-[1,2,4]oxadiazol-5-yl)-piperidin-4-yl]-4-(2-methyl-imidazol-1-yl)-benzamide] the EC50 was 1740 nM.

`CC(C)c1noc(N2CCC(N(C(=O)c3ccc(-n4cncn4)c(F)c3)C3CC3)CC2)n1` [Example 100, N-Cyclopropyl-3-fluoro-N-[1-(3-isopropyl-[1,2,4]oxadiazol-5-yl)-piperidin-4-yl]-4-[1,2,4]triazol-1-yl-benzamide] gave an EC50 of 45 nM.

Work on `Cc1ncnn1-c1ccc(C(=O)N(C2CC2)C2CCN(c3nc(C(C)C)no3)CC2)cc1F` [Example 101, N-Cyclopropyl-3-fluoro-N-[1-(3-isopropyl-[1,2,4]oxadiazol-5-yl)-piperidin-4-yl]-4-(5-methyl-[1,2,4]triazol-1-yl)-benzamide] yielded an EC50 of 1130 nM.

`CCc1cnc(N2CCC(N(C(=O)c3ccc(-n4ccnc4C)cc3)C3CC3)CC2)nc1` [Example 102, N-Cyclopropyl-N-[1-(5-ethyl-pyrimidin-2-yl)-piperidin-4-yl]-4-(2-methyl-imidazol-1-yl)-benzamide] gave an EC50 of 1090 nM.

`CCc1cnc(N2CCC(N(C(=O)c3ccc(-n4ncnc4C)cc3)C3CC3)CC2)nc1` [Example 103, N-Cyclopropyl-N-[1-(5-ethyl-pyrimidin-2-yl)-piperidin-4-yl]-4-(5-methyl-[1,2,4]triazol-1-yl)-benzamide] gave an EC50 of 1590 nM.

`CCc1cnc(N2CCC(N(C(=O)c3ccc(-n4ccnc4C)c(F)c3)C3CC3)CC2)nc1` [Example 104, N-Cyclopropyl-N-[1-(5-ethyl-pyrimidin-2-yl)-piperidin-4-yl]-3-fluoro-4-(2-methyl-imidazol-1-yl)-benzamide] gave an EC50 of 1950 nM.

Compound `CCc1cnc(N2CCC(N(C(=O)c3ccc(-n4cncn4)c(F)c3)C3CC3)CC2)nc1` [Example 105, N-Cyclopropyl-N-[1-(5-ethyl-pyrimidin-2-yl)-piperidin-4-yl]-3-fluoro-4-[1,2,4]triazol-1-yl-benzamide] has an EC50 of 53 nM.

`CCc1cnc(N2CCC(N(C(=O)c3ccc(-n4ncnc4C)c(F)c3)C3CC3)CC2)nc1` [Example 106, N-Cyclopropyl-N-[1-(5-ethyl-pyrimidin-2-yl)-piperidin-4-yl]-3-fluoro-4-(5-methyl-[1,2,4]triazol-1-yl)-benzamide] was tested, and the EC50 was 885 nM.

With `Cc1nccn1-c1ccc(C(=O)N(C2CC2)C2CCN(c3ncc(Cl)cn3)CC2)cc1` [Example 107, N-[1-(5-Chloro-pyrimidin-2-yl)-piperidin-4-yl]-N-cyclopropyl-4-(2-methyl-imidazol-1-yl)-benzamide] the EC50 was 549 nM.

Compound `O=C(c1ccc(-n2cncn2)cc1)N(C1CC1)C1CCN(c2ncc(Cl)cn2)CC1` [Example 108, N-[1-(5-Chloro-pyrimidin-2-yl)-piperidin-4-yl]-N-cyclopropyl-4-[1,2,4]triazol-1-yl-benzamide] has an EC50 of 552 nM.

`Cc1ncnn1-c1ccc(C(=O)N(C2CC2)C2CCN(c3ncc(Cl)cn3)CC2)cc1` [Example 109, N-[1-(5-Chloro-pyrimidin-2-yl)-piperidin-4-yl]-N-cyclopropyl-4-(5-methyl-[1,2,4]triazol-1-yl)-benzamide] gave an EC50 of 1740 nM.

`O=C(c1ccc(-n2cnnn2)cc1)N(C1CC1)C1CCN(c2ncc(Cl)cn2)CC1` [Example 110, N-[1-(5-Chloro-pyrimidin-2-yl)-piperidin-4-yl]-N-cyclopropyl-4-tetrazol-1-yl-benzamide] showed an EC50 of 360 nM.

In the case of `Cc1nnnn1-c1ccc(C(=O)N(C2CC2)C2CCN(c3ncc(Cl)cn3)CC2)cc1` [Example 111, N-[1-(5-Chloro-pyrimidin-2-yl)-piperidin-4-yl]-N-cyclopropyl-4-(5-methyl-tetrazol-1-yl)-benzamide], the EC50 is reported as 407 nM.

For `Cc1nccn1-c1ccc(C(=O)N(C2CC2)C2CCN(c3ncc(Cl)cn3)CC2)cc1F` [Example 112, N-[1-(5-Chloro-pyrimidin-2-yl)-piperidin-4-yl]-N-cyclopropyl-3-fluoro-4-(2-methyl-imidazol-1-yl)-benzamide], the EC50 was 1500 nM.

Compound `O=C(c1ccc(-n2cncn2)c(F)c1)N(C1CC1)C1CCN(c2ncc(Cl)cn2)CC1` [Example 113, N-[1-(5-Chloro-pyrimidin-2-yl)-piperidin-4-yl]-N-cyclopropyl-3-fluoro-4-[1,2,4]triazol-1-yl-benzamide] has an EC50 of 47 nM.

Compound `O=C(c1ccc(-n2cnnn2)c(F)c1)N(C1CC1)C1CCN(c2ncc(Cl)cn2)CC1` [Example 115, N-[1-(5-Chloro-pyrimidin-2-yl)-piperidin-4-yl]-N-cyclopropyl-3-fluoro-4-tetrazol-1-yl-benzamide] has an EC50 of 54 nM.

Compound `Cc1nnnn1-c1ccc(C(=O)N(C2CC2)C2CCN(c3ncc(Cl)cn3)CC2)cc1F` [Example 116, N-[1-(5-Chloro-pyrimidin-2-yl)-piperidin-4-yl]-N-cyclopropyl-3-fluoro-4-(5-methyl-tetrazol-1-yl)-benzamide] has an EC50 of 294 nM.

`O=C(c1ccc(-n2cnnn2)cc1)N(C1CC1)C1CCN(c2ncc(C(F)(F)F)cc2F)CC1` [Example 117, N-Cyclopropyl-N-(3′-fluoro-5′-trifluoromethyl-3,4,5,6-tetrahydro-2H-[1,2′]bipyridinyl-4-yl)-4-tetrazol-1-yl-benzamide] gave an EC50 of 53 nM.

Compound `Cc1nnnn1-c1ccc(C(=O)N(C2CC2)C2CCN(c3ncc(C(F)(F)F)cc3F)CC2)cc1` [Example 118, N-Cyclopropyl-N-(3′-fluoro-5′-trifluoromethyl-3,4,5,6-tetrahydro-2H-[1,2′]bipyridinyl-4-yl)-4-(5-methyl-tetrazol-1-yl)-benzamide] has an EC50 of 101 nM.
